In BindingDB's records for patent US10851102 (Theravance Biopharma R&D Ip, 2020) one finds Ki data, which are given here for one molecule.

Assay [1] has as its target Non-receptor tyrosine-protein kinase TYK2 (Homo sapiens, UniProt P29597).
Assay [2] concerns the target T1, Tyrosine-protein kinase JAK3 (Homo sapiens, UniProt P52333).
T1 sequence (P52333 whole entry): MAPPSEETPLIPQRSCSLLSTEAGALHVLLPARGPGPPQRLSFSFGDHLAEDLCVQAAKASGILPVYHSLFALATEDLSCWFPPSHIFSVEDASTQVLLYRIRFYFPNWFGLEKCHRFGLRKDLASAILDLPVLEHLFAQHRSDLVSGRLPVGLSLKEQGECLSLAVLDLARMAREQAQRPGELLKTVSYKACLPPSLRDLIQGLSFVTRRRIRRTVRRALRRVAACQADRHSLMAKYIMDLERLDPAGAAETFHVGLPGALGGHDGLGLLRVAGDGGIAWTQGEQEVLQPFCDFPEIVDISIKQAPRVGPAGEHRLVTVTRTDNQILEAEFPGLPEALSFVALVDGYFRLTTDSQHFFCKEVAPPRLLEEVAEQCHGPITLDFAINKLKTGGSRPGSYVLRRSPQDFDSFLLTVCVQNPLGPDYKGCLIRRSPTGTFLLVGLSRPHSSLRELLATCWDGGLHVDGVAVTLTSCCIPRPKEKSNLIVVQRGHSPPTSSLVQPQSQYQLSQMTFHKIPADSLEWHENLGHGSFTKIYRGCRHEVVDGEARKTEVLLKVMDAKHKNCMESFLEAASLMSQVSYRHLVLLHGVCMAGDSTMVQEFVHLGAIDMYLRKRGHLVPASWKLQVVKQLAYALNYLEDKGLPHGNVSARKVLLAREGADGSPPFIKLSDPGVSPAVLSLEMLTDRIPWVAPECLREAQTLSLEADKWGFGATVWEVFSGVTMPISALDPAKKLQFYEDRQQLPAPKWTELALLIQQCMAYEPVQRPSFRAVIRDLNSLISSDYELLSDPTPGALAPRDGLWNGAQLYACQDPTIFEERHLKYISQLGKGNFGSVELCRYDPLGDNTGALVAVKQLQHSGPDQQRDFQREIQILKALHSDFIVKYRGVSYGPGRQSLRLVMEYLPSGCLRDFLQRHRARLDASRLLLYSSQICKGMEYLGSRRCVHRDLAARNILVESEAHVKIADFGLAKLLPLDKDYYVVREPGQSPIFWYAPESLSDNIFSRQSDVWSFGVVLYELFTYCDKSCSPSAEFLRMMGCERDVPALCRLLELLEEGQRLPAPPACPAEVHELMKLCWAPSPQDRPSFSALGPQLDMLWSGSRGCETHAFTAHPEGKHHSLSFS

Assay [3] deals with Tyrosine-protein kinase JAK2 (Homo sapiens, UniProt O60674).
Tyrosine-protein kinase JAK2, sequence (O60674 whole entry): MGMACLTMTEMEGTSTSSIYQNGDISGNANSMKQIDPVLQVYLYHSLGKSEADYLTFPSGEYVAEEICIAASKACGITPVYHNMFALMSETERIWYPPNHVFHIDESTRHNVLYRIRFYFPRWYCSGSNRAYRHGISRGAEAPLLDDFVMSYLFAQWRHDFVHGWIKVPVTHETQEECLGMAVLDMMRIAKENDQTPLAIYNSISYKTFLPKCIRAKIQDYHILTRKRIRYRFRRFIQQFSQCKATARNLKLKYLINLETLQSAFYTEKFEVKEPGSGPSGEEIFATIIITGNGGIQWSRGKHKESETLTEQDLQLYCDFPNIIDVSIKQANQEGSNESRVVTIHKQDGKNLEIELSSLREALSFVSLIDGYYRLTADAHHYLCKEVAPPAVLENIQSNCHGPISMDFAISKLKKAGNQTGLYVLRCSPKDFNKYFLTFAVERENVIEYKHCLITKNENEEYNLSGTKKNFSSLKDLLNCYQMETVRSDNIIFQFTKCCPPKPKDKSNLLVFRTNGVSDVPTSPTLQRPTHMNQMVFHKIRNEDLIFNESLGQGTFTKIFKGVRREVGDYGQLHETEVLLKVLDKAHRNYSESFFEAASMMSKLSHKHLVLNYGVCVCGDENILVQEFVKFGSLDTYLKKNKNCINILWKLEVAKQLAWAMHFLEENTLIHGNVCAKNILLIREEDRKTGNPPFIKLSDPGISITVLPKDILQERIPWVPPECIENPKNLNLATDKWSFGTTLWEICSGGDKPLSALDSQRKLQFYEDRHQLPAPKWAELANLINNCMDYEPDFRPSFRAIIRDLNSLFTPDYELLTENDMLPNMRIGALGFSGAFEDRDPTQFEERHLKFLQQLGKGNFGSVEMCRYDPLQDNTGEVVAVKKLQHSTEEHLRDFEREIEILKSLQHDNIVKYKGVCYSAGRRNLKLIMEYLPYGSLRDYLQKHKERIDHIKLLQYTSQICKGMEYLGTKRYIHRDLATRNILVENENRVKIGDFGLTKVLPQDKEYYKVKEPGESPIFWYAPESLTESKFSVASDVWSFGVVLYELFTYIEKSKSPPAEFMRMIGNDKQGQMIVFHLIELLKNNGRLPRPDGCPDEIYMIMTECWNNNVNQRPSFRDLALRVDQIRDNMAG

Non-receptor tyrosine-protein kinase TYK2, sequence (P29597 whole entry): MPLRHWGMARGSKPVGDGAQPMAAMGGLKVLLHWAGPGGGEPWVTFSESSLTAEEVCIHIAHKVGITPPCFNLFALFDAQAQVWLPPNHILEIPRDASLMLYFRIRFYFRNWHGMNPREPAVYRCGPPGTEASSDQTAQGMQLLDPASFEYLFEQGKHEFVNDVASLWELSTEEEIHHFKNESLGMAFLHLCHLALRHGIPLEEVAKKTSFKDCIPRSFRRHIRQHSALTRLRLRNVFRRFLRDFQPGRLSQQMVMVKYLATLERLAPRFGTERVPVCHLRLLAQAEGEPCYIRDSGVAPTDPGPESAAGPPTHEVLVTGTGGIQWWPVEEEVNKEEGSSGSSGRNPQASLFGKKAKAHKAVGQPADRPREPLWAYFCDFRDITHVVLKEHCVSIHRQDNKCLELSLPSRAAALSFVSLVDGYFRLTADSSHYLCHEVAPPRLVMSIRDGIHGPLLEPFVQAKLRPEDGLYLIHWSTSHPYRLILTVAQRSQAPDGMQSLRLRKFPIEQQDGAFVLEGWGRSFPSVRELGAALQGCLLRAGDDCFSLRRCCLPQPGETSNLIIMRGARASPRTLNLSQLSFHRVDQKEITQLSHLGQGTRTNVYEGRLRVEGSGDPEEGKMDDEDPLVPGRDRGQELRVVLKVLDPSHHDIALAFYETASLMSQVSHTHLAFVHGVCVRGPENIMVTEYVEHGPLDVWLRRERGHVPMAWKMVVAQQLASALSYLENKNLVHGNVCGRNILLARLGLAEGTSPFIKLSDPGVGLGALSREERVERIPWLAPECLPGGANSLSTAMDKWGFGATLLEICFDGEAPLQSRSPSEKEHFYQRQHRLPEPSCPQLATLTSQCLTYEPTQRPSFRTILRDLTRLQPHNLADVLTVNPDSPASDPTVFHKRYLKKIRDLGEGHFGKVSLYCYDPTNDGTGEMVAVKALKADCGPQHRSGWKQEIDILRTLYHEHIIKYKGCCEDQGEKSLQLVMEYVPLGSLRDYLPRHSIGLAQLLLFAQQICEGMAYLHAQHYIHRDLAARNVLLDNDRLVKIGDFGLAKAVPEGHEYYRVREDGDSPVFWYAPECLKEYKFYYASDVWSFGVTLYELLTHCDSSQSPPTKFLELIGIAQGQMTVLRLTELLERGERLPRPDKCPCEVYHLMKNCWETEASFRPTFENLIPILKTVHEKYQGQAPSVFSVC

As for `C=CC(=O)N1[C@@H]2CC[C@H]1C[C@H](Oc1cc(-c3ccc(O)cc3)cn3cncc13)C2` [US10851102, Example 10], the Ki in assay [1] was more than 100 nM; in assay [2] it was less than 0.1 nM; in assay [3], more than 100 nM.

A word on the Ki: it is a measure of affinity in units of concentration, obtained from inhibition or displacement. A high value points to lower affinity.
